pIC50: −log10 of the molar value. Like-named read-outs stand apart in the source and are kept apart here.
Key:
hNAMPT protein = hNAMPT protein (Homo sapiens (Human), UniProt P43490); test: NAMPT enzyme assay (TR-FRET/HTRF, BodiPY ligand, anti 6His-Tb); assay type: binding; details: for pIC50: NAMPT IC50 range class, read-out: IC50; for inhibition at 1 µM: read-out: Percent Inhibition
How it was run: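 Compound or DMSO was incubated for 1 h at room temperature, protected from light, with BodiPY ligand and hNAMPT labelled by terbium anti-6His antibody. The 520 nm to 486 nm emission ratio after 320 nm excitation gave inhibition versus vehicle, from which concentration-response curves yielded IC50.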

PC3 cells = test: PC3 growth inhibition (Cell-titer glo, 72 hours); assay type: cell-based; details: Homo sapiens, read-out: Percent Inhibition (PC3 growth inhibition); for inhibition at 1.667 µM: compound concentration 1.667 μM
How it was run: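 Compounds in AIM serum-free medium were applied for 72 h at 37 °C, 5% CO2 to PC3 cells plated overnight from RPMI1640 culture. Luminescence after 10 min CellTiter-Glo, normalised to DMSO, gave % viability at 1 μM or 1.667 μM, or GI50/LD50.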

[1] = PC-3, PC3 cells, 72 hours, Cell-titer glo
[2] = PC-3, compound concentration 1 μM, PC3 cells, 72 hours, Cell-titer glo

Sequence of hNAMPT protein (P43490 whole entry): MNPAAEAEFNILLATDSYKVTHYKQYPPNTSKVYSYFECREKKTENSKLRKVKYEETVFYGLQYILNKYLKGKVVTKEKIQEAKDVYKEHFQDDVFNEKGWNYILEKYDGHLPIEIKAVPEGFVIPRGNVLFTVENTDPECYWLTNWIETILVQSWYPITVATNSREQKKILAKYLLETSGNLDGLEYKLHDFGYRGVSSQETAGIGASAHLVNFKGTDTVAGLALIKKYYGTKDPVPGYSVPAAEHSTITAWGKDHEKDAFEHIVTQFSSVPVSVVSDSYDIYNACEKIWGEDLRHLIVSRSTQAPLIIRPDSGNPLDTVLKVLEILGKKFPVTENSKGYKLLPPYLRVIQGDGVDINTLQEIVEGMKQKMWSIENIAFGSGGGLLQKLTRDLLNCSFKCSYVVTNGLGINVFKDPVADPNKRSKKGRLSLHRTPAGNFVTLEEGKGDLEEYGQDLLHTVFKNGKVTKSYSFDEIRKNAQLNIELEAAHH

| SMILES | pIC50 (hNAMPT protein) | inhibition at 1 µM (hNAMPT protein; compound concentration 1 μM) [%] | inhibition at 1.667 µM (PC3 cells; [1]) [%] | inhibition at 1 µM (PC3 cells; [2]) [%] | inhibition at 1 µM (hNAMPT protein) [%] | inhibition at 1 µM (PC3 cells; PC-3, 72 h) [%] |
| --- | --- | --- | --- | --- | --- | --- |
| O=C(NCCCc1ncc[nH]1)c1ccc2nc(OC3CCOCC3)c(-c3ccc(Cl)cc3)nc2c1 [Compound I-111, 3-(4-chlorophenyl)-N-[3-(1H-imidazol-2-yl)propyl]-2-(tetrahydro-2H-pyran-4-yloxy)quinoxaline-6-carboxamide] | > 7.00 | 99 | 2 |  |  |  |
| O=C(NCCCn1ccnc1)c1ccc2nc(N3CCC(N4CCNCC4)CC3)c(-c3ccccc3)nc2c1 [Compound I-112, N-[3-(1H-imidazol-1-yl)propyl]-3-phenyl-2-[4-(piperazin-1-yl)piperidin-1-yl]quinoxaline-6-carboxamide] | > 7.00 | 100 |  | -1 |  |  |
| CC1(C)CN(c2nc3cc(C(=O)NCCCn4ccnc4)ccc3nc2-c2ccccc2)CCO1 [Compound I-113, 3-(2,2-dimethylmorpholin-4-yl)-N-[3-(1H-imidazol-1-yl)propyl]-2-phenylquinoxaline-6-carboxamide] | 6.00 to 6.30 | 64 |  | -8 |  |  |
| O=C(NCCOc1cccnc1)c1ccc2nc(N3CCC(O)CC3)c(-c3ccc(F)cc3)nc2c1 [Compound I-114, 3-(4-Fluorophenyl)-2-(4-hydroxypiperidin-1-yl)-N-[2-(pyridin-3-yloxy)ethyl]quinoxaline-6-carboxamide] | > 7.00 |  | 2 |  | > 99 |  |
| C[C@@H]1CN(c2nc3ccc(C(=O)NCCCn4ccnc4)cc3nc2-c2ccccc2)C[C@H](C)O1 [Compound I-115, cis-2-[(2R,6S)-2,6-dimethylmorpholin-4-yl]-N-[3-(1H-imidazol-1-yl)propyl]-3-phenylquinoxaline-6-carboxamide] | > 7.00 | 100 |  | -8 |  |  |
| O=C(NCCCc1ncc[nH]1)c1ccc2nc(N3CCCC3)c(-c3ccc(Cl)cc3)nc2c1 [Compound I-116, 3-(4-chlorophenyl)-N-[3-(1H-imidazol-2-yl)propyl]-2-(pyrrolidin-1-yl)quinoxaline-6-carboxamide] | > 7.00 | 98 | 2 |  |  |  |
| O=C(NCCc1cccnc1)c1ccc2nc(-c3ccco3)c(-c3ccco3)nc2c1 [Compound I-117, 2,3-di(2-furyl)-N-[2-(pyridin-3-yl)ethyl]quinoxaline-6-carboxamide] | 5.00 to 5.70 | 22 |  | 97 |  |  |
| O=C(NCCc1c[nH]cn1)c1ccc2nc(-c3ccccc3)c(-c3ccccc3)nc2c1 [Compound I-118, N-[2-(1H-imidazol-4-yl)ethyl]-2,3-diphenylquinoxaline-6-carboxamide] | 5.00 to 5.70 | 29 |  | 85 |  |  |
| Cn1cc(-c2nc3ccc(C(=O)NCCCn4ccnc4)cc3nc2-c2ccccc2)cn1 [Compound I-119, N-[3-(1H-imidazol-1-yl)propyl]-2-(1-methyl-1H-pyrazol-4-yl)-3-phenylquinoxaline-6-carboxamide] | 6.00 to 6.30 | 58 |  | -8 |  |  |
| NCc1cccc(-c2nc3cc(C(=O)NCCCn4ccnc4)ccc3nc2-c2ccccc2)c1 [Compound I-120, 3-[3-(Aminomethyl)phenyl]-N-[3-(1H-imidazol-1-yl)propyl]-2-phenylquinoxaline-6-carboxamide] | 5.00 to 5.70 |  |  | 1 | 47 |  |
| O=C(c1ccc2nc(-c3ccc(F)cc3)c(-c3ccc(F)cc3)nc2c1)N1CCc2nc[nH]c2C1 [Compound I-121, [2,3-bis(4-fluorophenyl)quinoxalin-6-yl](3,4,6,7-tetrahydro-5H-imidazo[4,5-c]pyridin-5-yl)methanone] | 5.00 to 5.70 | 12 |  | 99 |  |  |
| O=C(NCCc1ncc[nH]1)c1ccc2nc(-c3ccc(F)cc3)c(-c3ccc(F)cc3)nc2c1 [Compound I-122, 2,3-Bis(4-fluorophenyl)-N-[2-(1H-imidazol-2-yl)ethyl]quinoxaline-6-carboxamide] | 5.00 to 5.70 | 60 | 4 |  |  |  |
| NC(=O)c1cn2c(n1)CN(C(=O)c1ccc3nc(-c4ccc(F)cc4)c(-c4ccc(F)cc4)nc3c1)CC2 [Compound I-123, 7-{[2,3-bis(4-fluorophenyl)quinoxalin-6-yl]carbonyl}-5,6,7,8-tetrahydroimidazo[1,2-a]pyrazine-2-carboxamide] | 5.00 to 5.70 | 31 |  | 96 |  |  |
| O=C(NCCCn1ccnc1)c1ccc2nc(-c3ccccc3)c(N3CCCC3)nc2c1 [Compound I-124, N-[3-(1H-imidazol-1-yl)propyl]-2-phenyl-3-(pyrrolidin-1-yl)quinoxaline-6-carboxamide] | 5.70 to 6.00 | 38 |  | 27 |  |  |
| CS(=O)(=O)N1CCN(c2nc3ccc(C(=O)NCCCn4ccnc4)cc3nc2-c2ccccc2)CC1 [Compound I-125, N-[3-(1H-imidazol-1-yl)propyl]-2-[4-(methylsulfonyl)piperazin-1-yl]-3-phenylquinoxaline-6-carboxamide] | 6.30 to 7.00 | 73 |  | -7 |  |  |
| CN(c1nc2cc(C(=O)NCCCn3ccnc3)ccc2nc1-c1ccccc1)C1CC1 [Compound I-126, 3-[cyclopropyl(methyl)amino]-N-[3-(1H-imidazol-1-yl)propyl]-2-phenylquinoxaline-6-carboxamide] | 5.00 to 5.70 | 12 |  | 93 |  |  |
| CN1CCN(c2nc3cc(C(=O)NCCCn4ccnc4)ccc3nc2-c2ccccc2)CC1=O [Compound I-127, N-[3-(1H-imidazol-1-yl)propyl]-3-(4-methyl-3-oxopiperazin-1-yl)-2-phenylquinoxaline-6-carboxamide] | 5.00 to 5.70 | 16 |  | 95 |  |  |
| CN1CCN(c2nc3ccc(C(=O)NCCCn4ccnc4)cc3nc2-c2ccccc2)CC1 [Compound I-128, N-[3-(1H-imidazol-1-yl)propyl]-2-(4-methylpiperazin-1-yl)-3-phenylquinoxaline-6-carboxamide] | 6.00 to 6.30 | 60 |  | -7 |  |  |
| CS(=O)(=O)N1CCN(c2nc3cc(C(=O)NCCCn4ccnc4)ccc3nc2-c2ccccc2)CC1 [Compound I-129, N-[3-(1H-imidazol-1-yl)propyl]-3-[4-(methylsulfonyl)piperazin-1-yl]-2-phenylquinoxaline-6-carboxamide] | 6.30 to 7.00 | 70 |  | -6 |  |  |
| O=C(NCCc1ccccn1)c1ccc2nc(N3CCC(C4CCNCC4)CC3)c(-c3ccccc3)nc2c1 [Compound I-130, 2-(4,4′-Bipiperidin-1-yl)-3-phenyl-N-[2-(pyridin-2-yl)ethyl]quinoxaline-6-carboxamide] | 6.30 to 7.00 |  |  | 93 | 81 |  |
| N#Cc1ccc(-c2nc3ccc(C(=O)NCCCn4ccnc4)cc3nc2-c2ccccc2)cc1 [Compound I-131, 2-(4-cyanophenyl)-N-[3-(1H-imidazol-1-yl)propyl]-3-phenylquinoxaline-6-carboxamide] | 6.00 to 6.30 | 64 |  | -8 |  |  |
| O=C(NCc1ccc2[nH]cnc2c1)c1ccc2nc(N3CCOCC3)c(-c3ccc(F)cc3)nc2c1 [Compound I-132, N-(1H-Benzimidazol-5-ylmethyl)-3-(4-fluorophenyl)-2-(morpholin-4-yl)quinoxaline-6-carboxamide] | 6.00 to 6.30 |  | 2 |  | 56 |  |
| O=C(NCc1ccc2cn[nH]c2c1)c1ccc2nc(N3CCCCC3)c(-c3ccc(F)cc3)nc2c1 [Compound I-133, 3-(4-fluorophenyl)-N-(1H-indazol-6-ylmethyl)-2-(piperidin-1-yl)quinoxaline-6-carboxamide] | 6.30 to 7.00 | 68 | 3 |  |  |  |
| COc1cccc(-c2nc3ccc(C(=O)NCCc4ncc[nH]4)cc3nc2-c2cccc(OC)c2)c1 [Compound I-134, N-[2-(1H-imidazol-2-yl)ethyl]-2,3-bis(3-methoxyphenyl)quinoxaline-6-carboxamide] | 6.00 to 6.30 | 65 |  | -3 |  |  |
| CC(=O)Nc1ccccc1-c1nc2cc(C(=O)NCCCn3ccnc3)ccc2nc1-c1ccccc1 [Compound I-135, 3-(2-acetamidophenyl)-N-[3-(1H-imidazol-1-yl)propyl]-2-phenylquinoxaline-6-carboxamide] | 5.00 to 5.70 | 16 |  | 101 |  |  |
| O=C(NCCCn1ccnc1)c1ccc2nc(N3CCC(N4CCCC4=O)CC3)c(-c3ccccc3)nc2c1 [Compound I-136, N-[3-(1H-imidazol-1-yl)propyl]-2-[4-(2-oxopyrrolidin-1-yl)piperidin-1-yl]-3-phenylquinoxaline-6-carboxamide] | 6.30 to 7.00 | 83 |  | -7 |  |  |
| O=C(NCCCn1ccnc1)c1ccc2nc(N3CCC3)c(-c3ccccc3)nc2c1 [Compound I-137, 2-(Azetidin-1-yl)-N-[3-(1H-imidazol-1-yl)propyl]-3-phenylquinoxaline-6-carboxamide] | 5.00 to 5.70 |  |  |  | 18 | 6 |
| O=C(NCCCc1cncnc1)c1ccc2nc(N3CCCCC3)c(-c3ccc(F)cc3)nc2c1 [Compound I-138, 3-(4-fluorophenyl)-2-(piperidin-1-yl)-N-[3-(pyrimidin-5-yl)propyl]quinoxaline-6-carboxamide] | 6.30 to 7.00 | 86 | > 99 |  |  |  |
